Common to all, as to assay type: binding
The target of experiment [1] is T1, HeLa cell extract proteins (Homo sapiens, UniProt P06753).
T1 construct: endogenous in cells; host or cells: HeLa cell extract

Experiment [2] has as its target T2, HeLa cell extract proteins (Homo sapiens, UniProt P27348).
T2 construct: endogenous in cells; host or cells: HeLa cell extract
T2 sequence (P27348 1-245): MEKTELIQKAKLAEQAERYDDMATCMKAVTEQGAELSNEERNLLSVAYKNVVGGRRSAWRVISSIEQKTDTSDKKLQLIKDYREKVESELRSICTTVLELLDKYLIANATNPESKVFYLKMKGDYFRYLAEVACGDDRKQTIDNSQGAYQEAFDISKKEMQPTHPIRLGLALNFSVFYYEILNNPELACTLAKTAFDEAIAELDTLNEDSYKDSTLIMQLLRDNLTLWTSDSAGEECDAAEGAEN

Experiment [3] deals with T3, HeLa cell extract proteins (Homo sapiens, UniProt P40926).
T3 construct: endogenous in cells; host or cells: HeLa cell extract
T3 sequence (P40926 25-338): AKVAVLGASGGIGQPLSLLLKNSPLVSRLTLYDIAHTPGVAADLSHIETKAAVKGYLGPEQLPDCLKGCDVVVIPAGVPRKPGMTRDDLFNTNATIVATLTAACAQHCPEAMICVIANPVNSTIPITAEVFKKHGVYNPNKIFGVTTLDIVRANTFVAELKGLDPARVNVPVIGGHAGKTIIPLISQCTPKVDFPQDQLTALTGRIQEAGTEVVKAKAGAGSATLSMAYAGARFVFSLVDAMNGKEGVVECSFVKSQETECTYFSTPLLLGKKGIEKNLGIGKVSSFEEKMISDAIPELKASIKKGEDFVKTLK

The target of experiment [4] is T4, HeLa cell extract proteins (Homo sapiens, UniProt P40939).
T4 construct: endogenous in cells; host or cells: HeLa cell extract

In experiment [5] the target is T5, HeLa cell extract proteins (Homo sapiens, UniProt Q9NX63).
T5 construct: endogenous in cells; host or cells: HeLa cell extract
T5 sequence (Q9NX63 1-227): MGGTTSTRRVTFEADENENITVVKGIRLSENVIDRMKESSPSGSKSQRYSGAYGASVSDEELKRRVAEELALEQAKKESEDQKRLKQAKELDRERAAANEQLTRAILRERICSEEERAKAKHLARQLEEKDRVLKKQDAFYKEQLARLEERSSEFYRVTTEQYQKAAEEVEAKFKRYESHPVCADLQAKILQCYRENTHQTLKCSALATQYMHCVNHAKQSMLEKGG

Experiment [6] has as its target T6, HeLa cell extract proteins (Homo sapiens, UniProt Q9UNK9).
T6 construct: endogenous in cells; host or cells: HeLa cell extract
T6 sequence (Q9UNK9 1-670): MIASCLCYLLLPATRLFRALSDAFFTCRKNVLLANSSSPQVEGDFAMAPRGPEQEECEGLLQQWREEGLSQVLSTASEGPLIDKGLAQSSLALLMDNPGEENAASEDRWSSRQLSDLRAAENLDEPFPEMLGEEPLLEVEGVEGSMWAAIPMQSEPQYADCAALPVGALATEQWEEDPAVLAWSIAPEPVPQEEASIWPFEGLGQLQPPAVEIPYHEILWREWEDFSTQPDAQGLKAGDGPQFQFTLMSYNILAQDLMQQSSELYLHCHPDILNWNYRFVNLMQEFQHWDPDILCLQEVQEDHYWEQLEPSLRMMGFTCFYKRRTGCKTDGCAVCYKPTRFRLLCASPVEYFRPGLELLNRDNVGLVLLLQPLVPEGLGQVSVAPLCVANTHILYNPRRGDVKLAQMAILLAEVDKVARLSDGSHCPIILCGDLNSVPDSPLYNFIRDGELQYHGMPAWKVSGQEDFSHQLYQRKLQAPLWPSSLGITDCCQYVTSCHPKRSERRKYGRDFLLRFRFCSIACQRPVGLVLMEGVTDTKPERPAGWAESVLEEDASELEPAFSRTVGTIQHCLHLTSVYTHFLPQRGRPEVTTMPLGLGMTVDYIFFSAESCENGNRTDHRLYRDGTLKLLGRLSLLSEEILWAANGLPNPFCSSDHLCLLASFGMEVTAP

Experiment [7] addresses T7, HeLa cell extract proteins (Homo sapiens, UniProt Q9Y265).
T7 construct: endogenous in cells; host or cells: HeLa cell extract

Where two headings read alike, the source gives them in different places.

T7 sequence (Q9Y265 whole entry): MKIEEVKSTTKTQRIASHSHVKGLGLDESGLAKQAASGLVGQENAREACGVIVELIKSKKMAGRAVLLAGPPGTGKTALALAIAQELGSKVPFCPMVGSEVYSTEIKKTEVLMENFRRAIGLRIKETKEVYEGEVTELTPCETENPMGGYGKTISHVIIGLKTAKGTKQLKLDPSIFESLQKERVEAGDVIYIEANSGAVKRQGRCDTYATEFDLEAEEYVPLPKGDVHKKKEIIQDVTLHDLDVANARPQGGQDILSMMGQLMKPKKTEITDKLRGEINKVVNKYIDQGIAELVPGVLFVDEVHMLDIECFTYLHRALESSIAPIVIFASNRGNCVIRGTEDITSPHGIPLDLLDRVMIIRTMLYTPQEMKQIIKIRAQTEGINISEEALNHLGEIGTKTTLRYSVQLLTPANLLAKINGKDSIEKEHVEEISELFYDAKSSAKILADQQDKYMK
T4 sequence (P40939 37-763): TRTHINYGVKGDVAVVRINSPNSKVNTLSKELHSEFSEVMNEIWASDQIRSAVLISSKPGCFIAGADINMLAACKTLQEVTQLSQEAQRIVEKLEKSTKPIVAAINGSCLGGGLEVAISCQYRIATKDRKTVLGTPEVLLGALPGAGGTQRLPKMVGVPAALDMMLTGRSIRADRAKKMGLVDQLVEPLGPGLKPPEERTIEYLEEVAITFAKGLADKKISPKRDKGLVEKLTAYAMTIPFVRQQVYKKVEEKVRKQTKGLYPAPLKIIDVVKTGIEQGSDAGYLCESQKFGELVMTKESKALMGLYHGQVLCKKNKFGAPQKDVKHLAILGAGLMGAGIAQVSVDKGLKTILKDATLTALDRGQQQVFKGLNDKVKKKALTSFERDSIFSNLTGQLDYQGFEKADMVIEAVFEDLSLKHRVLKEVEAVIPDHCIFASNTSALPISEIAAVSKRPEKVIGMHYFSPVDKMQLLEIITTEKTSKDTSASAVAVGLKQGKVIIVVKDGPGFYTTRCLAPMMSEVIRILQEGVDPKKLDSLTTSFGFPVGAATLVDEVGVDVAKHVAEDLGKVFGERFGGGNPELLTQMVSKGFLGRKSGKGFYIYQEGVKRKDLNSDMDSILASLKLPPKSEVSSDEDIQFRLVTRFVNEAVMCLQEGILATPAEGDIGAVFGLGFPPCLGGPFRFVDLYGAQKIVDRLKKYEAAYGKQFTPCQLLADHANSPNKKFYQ
T1 sequence (P06753 whole entry): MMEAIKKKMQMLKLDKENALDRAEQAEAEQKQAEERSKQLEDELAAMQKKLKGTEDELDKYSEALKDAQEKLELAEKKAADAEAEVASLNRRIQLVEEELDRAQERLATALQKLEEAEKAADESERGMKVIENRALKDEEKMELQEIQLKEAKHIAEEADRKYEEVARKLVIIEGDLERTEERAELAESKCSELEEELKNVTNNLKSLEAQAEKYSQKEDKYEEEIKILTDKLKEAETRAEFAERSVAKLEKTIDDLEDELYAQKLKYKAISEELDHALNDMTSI

Take `Nc1nc2cccc(-c3ccccc3)c2n1Cc1ccc(Cl)c(Cl)c1` [compound 3]: the “fold changes relative to vehicle control” value in experiment [1] (protein TPM3, HeLa) is recorded as 0.87; in experiment [2] (protein YWHAQ, HeLa), 0.88; in experiment [3] (protein MDH2, HeLa), 0.92; in experiment [4] (protein HADHA, HeLa) it was 1.07; in experiment [5] (captured protein CHCHD3, HeLa), 1.02; in experiment [6] (captured protein ANGEL1, HeLa) it was 0.95. For the same compound, the “fold changes relative to vehicle control” value in experiment [7] (protein RUVBL1, HeLa) was determined as 1.04.
Take `NCCOCCOCC(=O)Nc1nc2ncc(CNc3ccc(C(=O)NC(CCC(=O)O)C(=O)O)cc3)nc2c(=O)[nH]1` (stereo not shown) [compound 6]: the “fold changes relative to vehicle control” value in experiment [1] (protein TPM3, HeLa) turned out to be 1.18; in experiment [2] (HeLa, protein YWHAQ) it was 1.15; in experiment [3] (HeLa, protein MDH2) it was 1.34; in experiment [4] (HeLa, protein HADHA), 1.05; in experiment [5] (HeLa, protein CHCHD3) it was 1; in experiment [6] (protein ANGEL1, HeLa) it was 1.02. In experiment [7] (HeLa, protein RUVBL1), the “fold changes relative to vehicle control” value came out at 1.07.
Take `Nc1nc2[nH]cc(CCc3ccc(C(=O)N[C@@H](CCC(=O)O)C(=O)O)cc3)c2c(=O)[nH]1` [PTX, pemetrexed]: the “fold changes relative to vehicle control” value in experiment [1] turned out to be 0.89; in experiment [2] it was 1.05; in experiment [3] it was 1.11; in experiment [4], 0.89; in experiment [5], 0.98; in experiment [6], 0.94. In addition, in experiment [7], the “fold changes relative to vehicle control” value was found to be 0.92.
For `Nc1nc2c(c(=O)[nH]1)N(C=O)C(CNc1ccc(C(=O)N[C@@H](CCC(=O)O)C(=O)O)cc1)CN2` (stereo partly shown) [LEU, leucovorin], the “fold changes relative to vehicle control” value in experiment [1] (protein TPM3, HeLa) is on record as 0.93; in experiment [2] (HeLa, protein YWHAQ) it was 1.08; in experiment [3] (HeLa, protein MDH2), 1.06; in experiment [4] (HeLa, protein HADHA), 0.9; in experiment [5] (HeLa, protein CHCHD3) it was 0.92; in experiment [6] (protein ANGEL1, HeLa) it was 0.84. The “fold changes relative to vehicle control” value in experiment [7] (HeLa, protein RUVBL1) came to 1.06.
In the case of `CCCCCCOc1ccc(Cc2cnc(N)nc2N)cc1` [compound 1], the “fold changes relative to vehicle control” value came out at 1.18 in experiment [1] (protein TPM3, HeLa); 1.54 in experiment [2] (protein YWHAQ, HeLa); 1.26 in experiment [3] (protein MDH2, HeLa); 1 in experiment [4] (protein HADHA, HeLa); 0.93 in experiment [5] (captured protein CHCHD3, HeLa); 1.04 in experiment [6] (captured protein ANGEL1, HeLa). Besides, the “fold changes relative to vehicle control” value in experiment [7] (protein RUVBL1, HeLa) stood at 1.32.
`NCCCNc1ccc(C(=O)NC(CCC(=O)O)C(=O)O)cc1` (stereo not shown) [compound 7]: the “fold changes relative to vehicle control” value turned out to be 1.1 in experiment [1] (protein TPM3, HeLa); 0.86 in experiment [2] (HeLa, protein YWHAQ); 0.96 in experiment [3] (HeLa, protein MDH2); 0.99 in experiment [4] (HeLa, protein HADHA); 0.99 in experiment [5] (HeLa, protein CHCHD3); 1 in experiment [6] (protein ANGEL1, HeLa). Moreover, the “fold changes relative to vehicle control” value in experiment [7] (HeLa, protein RUVBL1) was 1.2.
With `CCCCCCOc1cccc(Cc2cnc(N)nc2N)c1` [compound 2], the “fold changes relative to vehicle control” value in experiment [1] (protein TPM3, HeLa) is 2.05; in experiment [2] (protein YWHAQ, HeLa), 2.29; in experiment [3] (protein MDH2, HeLa) it was 1.97; in experiment [4] (protein HADHA, HeLa), 1.45; in experiment [5] (captured protein CHCHD3, HeLa) it was 1.08; in experiment [6] (captured protein ANGEL1, HeLa), 0.94. In experiment [7] (protein RUVBL1, HeLa), the “fold changes relative to vehicle control” value came to 1.47.

These data come from paper PMC6199744, “Development of Chemical Proteomics for the Folateome and Analysis of the Kinetoplastid Folateome” (ACS Infectious Diseases, 2018).
